Laboratory results: ChEMBL document CHEMBL1909046, “DrugMatrix in vitro pharmacology data”

Key:
[1] = target: T1, Alpha-1A adrenergic receptor (Rattus norvegicus, UniProt P43140); test: DRUGMATRIX: Alpha-1A adrenergic receptor radioligand binding (ligand: prazosin); type: cell membranes, Wistar, Submaxillary gland, Membrane; settings: Not Active = under 50% inhibition at 10 µM
T1 sequence (P43140 whole entry): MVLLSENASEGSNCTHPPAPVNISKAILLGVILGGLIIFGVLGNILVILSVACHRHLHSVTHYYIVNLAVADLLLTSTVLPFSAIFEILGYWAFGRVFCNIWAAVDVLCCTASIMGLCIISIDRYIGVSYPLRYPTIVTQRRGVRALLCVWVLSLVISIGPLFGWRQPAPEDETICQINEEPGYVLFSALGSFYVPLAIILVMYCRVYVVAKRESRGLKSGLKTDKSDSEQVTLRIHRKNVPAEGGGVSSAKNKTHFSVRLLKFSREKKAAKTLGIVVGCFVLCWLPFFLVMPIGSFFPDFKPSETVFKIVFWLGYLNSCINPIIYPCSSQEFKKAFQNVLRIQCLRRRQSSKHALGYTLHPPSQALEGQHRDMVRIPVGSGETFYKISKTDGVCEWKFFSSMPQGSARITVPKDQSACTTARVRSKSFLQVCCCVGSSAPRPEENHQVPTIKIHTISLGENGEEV

[2] = target: T2, Alpha-2C adrenergic receptor (Homo sapiens, UniProt P18825); test: DRUGMATRIX: Adrenergic Alpha-2C radioligand binding (ligand: [3H] MK-912); type: cell membranes, Sf9, Membrane; settings: sf9
T2 sequence (P18825 whole entry): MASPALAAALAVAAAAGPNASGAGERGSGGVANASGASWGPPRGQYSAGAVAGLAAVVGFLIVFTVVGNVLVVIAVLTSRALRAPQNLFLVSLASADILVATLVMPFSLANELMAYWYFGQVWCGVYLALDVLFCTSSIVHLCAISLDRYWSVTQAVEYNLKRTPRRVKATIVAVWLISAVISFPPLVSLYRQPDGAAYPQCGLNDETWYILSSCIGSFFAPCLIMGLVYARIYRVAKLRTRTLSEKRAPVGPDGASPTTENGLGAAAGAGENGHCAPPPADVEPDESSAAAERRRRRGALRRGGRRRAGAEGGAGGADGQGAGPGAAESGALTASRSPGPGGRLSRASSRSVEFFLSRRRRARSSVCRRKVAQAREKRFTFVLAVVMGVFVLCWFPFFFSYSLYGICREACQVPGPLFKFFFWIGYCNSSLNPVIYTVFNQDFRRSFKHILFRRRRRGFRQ

[3] = DRUGMATRIX: Calcium Channel Type L, Benzothiazepine radioligand binding (ligand: [3H] Diltiazem); type: cell membranes, Rattus norvegicus, Wistar, Brain, Membrane; settings: Not Active = under 50% inhibition at 10 µM
[4] = target: T3, C-X-C chemokine receptor type 2 (Homo sapiens, UniProt P25025); type: cell membranes, Membrane; settings: cho-k1; also: in other assays of this panel Not Active means under 50% inhibition at 10 µM
T3 sequence (P25025 whole entry): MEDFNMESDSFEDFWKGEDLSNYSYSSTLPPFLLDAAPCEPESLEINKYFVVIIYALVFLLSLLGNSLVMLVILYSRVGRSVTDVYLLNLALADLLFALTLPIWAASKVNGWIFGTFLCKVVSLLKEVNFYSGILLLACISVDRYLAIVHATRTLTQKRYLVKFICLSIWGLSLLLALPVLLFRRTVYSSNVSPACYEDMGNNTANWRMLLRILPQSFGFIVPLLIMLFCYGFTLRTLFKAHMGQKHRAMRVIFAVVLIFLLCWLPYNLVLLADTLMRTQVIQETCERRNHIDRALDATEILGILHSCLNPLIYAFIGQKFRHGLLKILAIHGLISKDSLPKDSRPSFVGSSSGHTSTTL

Melanocortin receptor 3 = Melanocortin receptor 3 (Homo sapiens, UniProt P41968); type: cell membranes, Membrane; settings: hek293; also: in other assays of this panel Not Active means under 50% inhibition at 10 µM
[5] = target: T4, Amine oxidase [flavin-containing] A (Homo sapiens, UniProt P21397); test: DRUGMATRIX: Monoamine Oxidase MAO-A enzyme inhibition (substrate: Kynuramine); set-up: species or system BTI-TN-5B1-4; settings: bti-tn-5b1-4; Not Active = under 50% inhibition at 10 µM
T4 sequence (P21397 whole entry): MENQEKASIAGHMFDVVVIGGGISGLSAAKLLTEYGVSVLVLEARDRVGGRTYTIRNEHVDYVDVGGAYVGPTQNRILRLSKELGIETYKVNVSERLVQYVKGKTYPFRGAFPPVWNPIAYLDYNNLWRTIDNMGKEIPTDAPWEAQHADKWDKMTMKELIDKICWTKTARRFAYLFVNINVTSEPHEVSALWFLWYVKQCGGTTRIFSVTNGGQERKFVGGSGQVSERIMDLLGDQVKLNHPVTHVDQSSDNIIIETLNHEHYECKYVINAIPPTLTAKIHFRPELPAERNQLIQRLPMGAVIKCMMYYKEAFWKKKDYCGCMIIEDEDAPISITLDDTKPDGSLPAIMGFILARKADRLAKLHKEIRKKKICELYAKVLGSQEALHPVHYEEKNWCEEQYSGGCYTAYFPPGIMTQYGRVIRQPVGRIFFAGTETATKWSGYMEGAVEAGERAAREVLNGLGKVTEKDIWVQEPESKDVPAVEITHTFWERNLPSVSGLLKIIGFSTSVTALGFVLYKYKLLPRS

[6] = target: Delta-type opioid receptor (Homo sapiens, UniProt P41143); type: cell membranes, HEK293, Membrane; settings: hek293; also: in other assays of this panel Not Active means under 50% inhibition at 10 µM
[7] = DRUGMATRIX: Platelet-Derived Growth Factor (PDGF) radioligand binding (ligand: [125I] PDGF); type: cell-based; settings: nih3t3; Not Active = under 50% inhibition at 10 µM
Interstitial collagenase = target: T5, Interstitial collagenase (Homo sapiens, UniProt P03956); type: tissue-based, Rheumatoid synovial fibroblasts;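 also: MMP-1 enzyme inhibition assay using a peptide substrate; in other assays of this panel Not Active means under 50% inhibition at 10 µM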
T5 sequence (P03956 whole entry): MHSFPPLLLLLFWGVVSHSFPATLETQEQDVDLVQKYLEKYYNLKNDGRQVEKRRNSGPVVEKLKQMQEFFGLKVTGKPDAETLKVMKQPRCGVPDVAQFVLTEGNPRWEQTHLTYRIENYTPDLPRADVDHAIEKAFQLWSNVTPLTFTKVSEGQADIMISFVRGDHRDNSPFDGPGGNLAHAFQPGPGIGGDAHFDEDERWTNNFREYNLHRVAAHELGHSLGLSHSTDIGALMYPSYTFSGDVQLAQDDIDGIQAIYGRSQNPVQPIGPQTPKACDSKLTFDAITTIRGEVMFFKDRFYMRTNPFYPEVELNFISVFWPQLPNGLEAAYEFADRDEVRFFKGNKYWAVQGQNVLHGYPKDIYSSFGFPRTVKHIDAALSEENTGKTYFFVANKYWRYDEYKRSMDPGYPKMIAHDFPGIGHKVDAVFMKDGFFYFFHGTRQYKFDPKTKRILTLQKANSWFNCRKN

[8] = target: Matrix metalloproteinase-9 (Homo sapiens, UniProt P14780); type: cell-based
[9] = target: Protein phosphatase 3 catalytic subunit alpha (Homo sapiens, UniProt Q08209); set-up: species or system Escherichia coli
[10] = DRUGMATRIX: Purinergic P2X radioligand binding (ligand: [3H] alpha, beta-Methylene-ATP); type: cell membranes, Oryctolagus cuniculus, New Zealand albino, Urinary bladder, Membrane; settings: Not Active = under 50% inhibition at 10 µM

Matrix metalloproteinase-9, sequence (P14780 whole entry): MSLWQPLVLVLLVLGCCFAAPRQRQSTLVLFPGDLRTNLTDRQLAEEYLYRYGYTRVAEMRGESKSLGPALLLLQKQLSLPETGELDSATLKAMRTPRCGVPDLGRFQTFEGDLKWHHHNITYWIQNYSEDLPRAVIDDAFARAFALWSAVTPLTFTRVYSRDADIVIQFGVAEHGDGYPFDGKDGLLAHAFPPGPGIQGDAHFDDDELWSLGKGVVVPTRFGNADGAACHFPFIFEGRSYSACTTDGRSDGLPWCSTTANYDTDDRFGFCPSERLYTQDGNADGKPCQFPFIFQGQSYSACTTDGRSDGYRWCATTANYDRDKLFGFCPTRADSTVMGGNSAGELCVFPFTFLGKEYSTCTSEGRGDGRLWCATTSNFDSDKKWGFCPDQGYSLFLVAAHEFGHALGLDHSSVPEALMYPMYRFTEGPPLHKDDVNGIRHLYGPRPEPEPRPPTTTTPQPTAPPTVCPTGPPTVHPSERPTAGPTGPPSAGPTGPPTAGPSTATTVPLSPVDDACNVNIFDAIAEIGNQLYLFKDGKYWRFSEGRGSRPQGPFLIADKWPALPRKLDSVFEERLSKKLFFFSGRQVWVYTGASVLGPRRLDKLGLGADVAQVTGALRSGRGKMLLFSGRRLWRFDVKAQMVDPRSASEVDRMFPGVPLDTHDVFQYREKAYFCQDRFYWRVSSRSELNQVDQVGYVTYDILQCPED
Melanocortin receptor 3, sequence (P41968 whole entry): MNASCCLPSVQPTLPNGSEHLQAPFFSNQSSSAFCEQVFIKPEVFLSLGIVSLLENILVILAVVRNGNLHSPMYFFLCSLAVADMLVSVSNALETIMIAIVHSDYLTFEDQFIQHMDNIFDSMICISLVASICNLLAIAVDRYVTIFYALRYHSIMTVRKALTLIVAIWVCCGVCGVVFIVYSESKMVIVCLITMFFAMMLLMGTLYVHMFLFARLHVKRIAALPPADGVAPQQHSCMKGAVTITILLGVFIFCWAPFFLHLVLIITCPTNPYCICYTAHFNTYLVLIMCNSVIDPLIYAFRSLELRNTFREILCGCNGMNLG
Delta-type opioid receptor, sequence (P41143 whole entry): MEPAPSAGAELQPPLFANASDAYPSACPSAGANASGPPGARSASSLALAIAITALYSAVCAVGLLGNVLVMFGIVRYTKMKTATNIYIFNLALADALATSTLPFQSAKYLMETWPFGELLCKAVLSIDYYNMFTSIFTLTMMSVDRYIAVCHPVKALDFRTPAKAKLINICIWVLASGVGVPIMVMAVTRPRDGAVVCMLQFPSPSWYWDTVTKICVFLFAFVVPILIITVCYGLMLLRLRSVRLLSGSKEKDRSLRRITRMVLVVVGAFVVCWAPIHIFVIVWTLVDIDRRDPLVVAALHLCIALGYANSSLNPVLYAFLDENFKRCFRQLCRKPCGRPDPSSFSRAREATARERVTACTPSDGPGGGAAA

CN(C)[C@@H]1C(O)=C(C(N)=O)C(=O)[C@@]2(O)C(O)=C3C(=O)c4c(O)cccc4[C@@](C)(O)[C@H]3C[C@@H]12 [TETRACYCLINE]
Not Active: IC50 [1] | IC50 [2] | IC50 [3] | Ki [3] | IC50 [4] | IC50 (Melanocortin receptor 3) | IC50 [5] | IC50 [6] | IC50 [7] | Ki [7] | IC50 (Interstitial collagenase) | IC50 [8] | IC50 [9] | IC50 [10] | Ki [10]

c1ccc2[nH]c(-c3cscn3)nc2c1 [THIABENDAZOLE]
Not Active: IC50 [1] | IC50 [2] | IC50 [3] | Ki [3] | IC50 [4] | IC50 (Melanocortin receptor 3) | IC50 [5] | IC50 [6] | IC50 [7] | Ki [7] | IC50 (Interstitial collagenase) | IC50 [8] | IC50 [9] | IC50 [10] | Ki [10]

Cc1ccc(C(=O)C(C)CN2CCCCC2)cc1 (stereo not given) [TOLPERISONE]
Not Active: IC50 [1] | IC50 [2] | IC50 [3] | Ki [3] | IC50 [4] | IC50 (Melanocortin receptor 3) | IC50 [5] | IC50 [6] | IC50 [7] | Ki [7] | IC50 (Interstitial collagenase) | IC50 [8] | IC50 [9] | IC50 [10] | Ki [10]

NC(CO)(CO)CO [TROMETHAMINE]
Not Active: IC50 [1] | IC50 [2] | IC50 [3] | Ki [3] | IC50 [4] | IC50 (Melanocortin receptor 3) | IC50 [5] | IC50 [6] | IC50 [7] | Ki [7] | IC50 (Interstitial collagenase) | IC50 [8] | IC50 [9] | IC50 [10] | Ki [10]

CN1[C@@H]2CC[C@H]1C[C@@H](OC(=O)c1c[nH]c3ccccc13)C2 [TROPISETRON]
Not Active: IC50 [1] | IC50 [2] | IC50 [3] | Ki [3] | IC50 [4] | IC50 (Melanocortin receptor 3) | IC50 [5] | IC50 [6] | IC50 [7] | Ki [7] | IC50 (Interstitial collagenase) | IC50 [8] | IC50 [9] | IC50 [10] | Ki [10]

COc1cc(C(=O)NC2CCCNC2)cc(OC)c1OC (stereo not given) [TROXIPIDE]
Not Active: IC50 [1] | IC50 [2] | IC50 [3] | Ki [3] | IC50 [4] | IC50 (Melanocortin receptor 3) | IC50 [5] | IC50 [6] | IC50 [7] | Ki [7] | IC50 (Interstitial collagenase) | IC50 [8] | IC50 [9] | IC50 [10] | Ki [10]

CC(C)[C@H](N)C(=O)OCCOCn1cnc2c(=O)nc(N)[nH]c21 [VALACYCLOVIR]
Not Active: IC50 [1] | IC50 [2] | IC50 [3] | Ki [3] | IC50 [4] | IC50 (Melanocortin receptor 3) | IC50 [5] | IC50 [6] | IC50 [7] | Ki [7] | IC50 (Interstitial collagenase) | IC50 [8] | IC50 [9] | IC50 [10] | Ki [10]

CN[C@H](CC(C)C)C(=O)N[C@H]1C(=O)N[C@@H](CC(N)=O)C(=O)N[C@H]2C(=O)N[C@H]3C(=O)N[C@H](C(=O)N[C@H](C(=O)O)c4cc(O)cc(O)c4-c4cc3ccc4O)[C@H](O)c3ccc(c(Cl)c3)Oc3cc2cc(c3O[C@@H]2O[C@H](CO)[C@@H](O)[C@H](O)[C@H]2O[C@H]2C[C@](C)(N)[C@H](O)[C@H](C)O2)Oc2ccc(cc2Cl)[C@H]1O [VANCOMYCIN]
Not Active: IC50 [1] | IC50 [2] | IC50 [3] | Ki [3] | IC50 [4] | IC50 (Melanocortin receptor 3) | IC50 [5] | IC50 [6] | IC50 [7] | Ki [7] | IC50 (Interstitial collagenase) | IC50 [8] | IC50 [9] | IC50 [10] | Ki [10]

COc1ccc(C(CN(C)C)C2(O)CCCCC2)cc1 (stereo not given) [VENLAFAXINE]
Not Active: IC50 [1] | IC50 [2] | IC50 [3] | Ki [3] | IC50 [4] | IC50 (Melanocortin receptor 3) | IC50 [5] | IC50 [6] | IC50 [7] | Ki [7] | IC50 (Interstitial collagenase) | IC50 [8] | IC50 [9] | IC50 [10] | Ki [10]
